The values below come from the NIST ThermoML archive (doi:10.1021/je1005517).

This data set is described as follows: activity coefficient (dimensionless); of the first substance listed, at infinite dilution; xn = mol fraction of the nth substance listed. The conditions noted are these: Liquid, GC, x1 = 0.

± gives the expanded uncertainty stated by the source.

`CCCCOC(C)=O` [butyl ethanoate] + CCCCCCCCCCCCCCCCCCCCO: the activity coefficient (338.15 K, 101 kPa) came out at 0.14 ± 0.0084; the activity coefficient (343.15 K, 101 kPa) was 0.131 ± 0.0079; the activity coefficient (348.15 K, 101 kPa) was determined as 0.123 ± 0.0074; the activity coefficient (353.15 K, 101 kPa) is 0.115 ± 0.0069.
Regarding `CCO` [ethanol] + CCCCCCCCCCCCCCCCCCO, the activity coefficient reads like this: (333.15 K, 101.3 kPa) 0.0433 ± 0.0026; (338.15 K, 101.3 kPa) 0.0396 ± 0.0024; (343.15 K, 101.3 kPa) 0.0369 ± 0.0022; (348.15 K, 101.3 kPa) 0.0343 ± 0.0021; (353.15 K, 101.3 kPa) 0.032 ± 0.002.
Consider `CCCO` [propan-1-ol] + CCCCCCCCCCCCCCCCCCCCO, for which the activity coefficient was 0.213 ± 0.013 (338.15 K, 101 kPa); 0.193 ± 0.012 (343.15 K, 101 kPa); 0.175 ± 0.011 (348.15 K, 101 kPa); 0.159 ± 0.0095 (353.15 K, 101 kPa).
Take `ClC(Cl)(Cl)Cl` [tetrachloromethane] + CCCCCCCCCCCCCCCCCCO: the activity coefficient turned out to be 0.0288 ± 0.0017 (333.15 K, 101 kPa); 0.0285 ± 0.0017 (338.15 K, 101 kPa); 0.0283 ± 0.0017 (343.15 K, 101 kPa); 0.028 ± 0.0017 (348.15 K, 101 kPa); 0.0278 ± 0.0017 (353.15 K, 101 kPa).
On to `CCOC(C)=O` [ethyl acetate] + CCCCCCCCCCCCCCCCCCCCO, for which the activity coefficient reads like this: (338.15 K, 101 kPa) 0.123 ± 0.0074; (343.15 K, 101 kPa) 0.11 ± 0.0066; (348.15 K, 101 kPa) 0.099 ± 0.0059; (353.15 K, 101 kPa) 0.0888 ± 0.0053.
On the same counts, the results for `C1CCOC1` [tetrahydrofuran] + CCCCCCCCCCCCCCCCCCCCO are 0.0581 ± 0.0035, 0.0543 ± 0.0033, 0.0506 ± 0.003 and 0.0471 ± 0.0028.
With `ClC(Cl)Cl` [trichloromethane] + CCCCCCCCCCCCCCCCCCO, the activity coefficient amounted to 0.0227 ± 0.0014 (333.15 K, 101 kPa); 0.022 ± 0.0013 (338.15 K, 101 kPa); 0.0214 ± 0.0013 (343.15 K, 101 kPa); 0.0208 ± 0.0012 (348.15 K, 101 kPa); 0.0202 ± 0.0012 (353.15 K, 101 kPa).
Take `CCCCl` [1-chloropropane] + CCCCCCCCCCCCCCCCCCCCO: the activity coefficient by setting is: (338.15 K, 101 kPa) 0.0779 ± 0.0047; (343.15 K, 101 kPa) 0.0778 ± 0.0047; (348.15 K, 101 kPa) 0.0778 ± 0.0047; (353.15 K, 101 kPa) 0.0777 ± 0.0047.
On to `ClC(Cl)Cl` [trichloromethane] + CCCCCCCCCCCCCCCCCCCCO, for which the activity coefficient is, setting by setting: (338.15 K, 101 kPa) 0.0632 ± 0.0038; (343.15 K, 101 kPa) 0.0622 ± 0.0037; (348.15 K, 101 kPa) 0.0612 ± 0.0037; (353.15 K, 101 kPa) 0.0604 ± 0.0036.
`CC(C)=O` [acetone] + CCCCCCCCCCCCCCCCCCO: the activity coefficient stood at 0.0185 ± 0.0011 (333.15 K, 101 kPa); 0.0179 ± 0.0011 (338.15 K, 101 kPa); 0.0174 ± 0.001 (343.15 K, 101 kPa); 0.017 ± 0.001 (348.15 K, 101 kPa); 0.0166 ± 0.001 (353.15 K, 101 kPa).
In the case of `CC#N` [acetonitrile] + CCCCCCCCCCCCCCCCCCO, the activity coefficient worked out at 0.108 ± 0.0065 (333.15 K, 101 kPa); 0.0969 ± 0.0058 (338.15 K, 101 kPa); 0.0901 ± 0.0054 (343.15 K, 101 kPa); 0.0832 ± 0.005 (348.15 K, 101 kPa); 0.0766 ± 0.0046 (353.15 K, 101 kPa).
On to `Cc1ccccc1` [toluene] + CCCCCCCCCCCCCCCCCCCCO, for which the activity coefficient was 0.544 ± 0.033 (338.15 K, 101 kPa); 0.479 ± 0.029 (343.15 K, 101 kPa); 0.421 ± 0.025 (348.15 K, 101 kPa); 0.373 ± 0.022 (353.15 K, 101 kPa).
Take `Cc1ccccc1` [toluene] + CCCCCCCCCCCCCCCCCCO: the activity coefficient was 0.0372 ± 0.0022 (333.15 K, 101 kPa); 0.0355 ± 0.0021 (338.15 K, 101 kPa); 0.0343 ± 0.0021 (343.15 K, 101 kPa); 0.0331 ± 0.002 (348.15 K, 101 kPa); 0.0318 ± 0.0019 (353.15 K, 101 kPa).
As for `ClCCl` [dichloromethane] + CCCCCCCCCCCCCCCCCCCCO, the activity coefficient (338.15 K, 101 kPa) is 0.079 ± 0.0047; the activity coefficient (343.15 K, 101 kPa) amounted to 0.0642 ± 0.0039; the activity coefficient (348.15 K, 101 kPa) is 0.0532 ± 0.0032; the activity coefficient (353.15 K, 101 kPa) was found to be 0.0435 ± 0.0026.
For `C=CCCC` [1-pentene] + CCCCCCCCCCCCCCCCCCO, the activity coefficient (333.15 K, 101.3 kPa) is 0.0261 ± 0.0016; the activity coefficient (338.15 K, 101.3 kPa) was 0.0245 ± 0.0015; the activity coefficient (343.15 K, 101.3 kPa) was 0.0234 ± 0.0014; the activity coefficient (348.15 K, 101.3 kPa) was found to be 0.0222 ± 0.0013; the activity coefficient (353.15 K, 101.3 kPa) amounted to 0.0213 ± 0.0013.
`CCCCCCCC` [octane] + CCCCCCCCCCCCCCCCCCO: the activity coefficient (333.15 K, 101 kPa) amounted to 0.0513 ± 0.0031; the activity coefficient (338.15 K, 101 kPa) was determined as 0.0497 ± 0.003; the activity coefficient (343.15 K, 101 kPa) is 0.0485 ± 0.0029; the activity coefficient (348.15 K, 101 kPa) came out at 0.0473 ± 0.0028; the activity coefficient (353.15 K, 101 kPa) turned out to be 0.0461 ± 0.0028.
Take `C1CCCCC1` [cyclohexane] + CCCCCCCCCCCCCCCCCCCCO: the activity coefficient (338.15 K, 101 kPa) stood at 0.108 ± 0.0065; the activity coefficient (343.15 K, 101 kPa) is 0.102 ± 0.0061; the activity coefficient (348.15 K, 101 kPa) worked out at 0.0969 ± 0.0058; the activity coefficient (353.15 K, 101 kPa) stood at 0.0918 ± 0.0055.
`C1CCCCC1` [cyclohexane] + CCCCCCCCCCCCCCCCCCO: the activity coefficient was 0.0365 ± 0.0022 (333.15 K, 101 kPa); 0.0337 ± 0.002 (338.15 K, 101 kPa); 0.0315 ± 0.0019 (343.15 K, 101 kPa); 0.0294 ± 0.0018 (348.15 K, 101 kPa); 0.0274 ± 0.0016 (353.15 K, 101 kPa).
